Measured values reported in ChEMBL document CHEMBL4130404, “Lamellodysidines A and B, Sesquiterpenes Isolated from the Marine Sponge Lamellodysidea herbacea” (J Nat Prod, 2017).
Calls of active or inactive are those of the source. The calls are words filed in the database; no cut-off is given here.

Columns and labels:
[1] = system: Macrophage; test: Inhibition of cholesterol ester accumulation in macrophages (unknown origin); format: functional, cell-based
[2] = system: Macrophage; test: Inhibition of RANKL-induced formation of multinuclear osteoclasts in macrophages (unknown origin); format: functional, cell-based
[3] = organism: Homo sapiens; test: Inhibition of ubiquitin/proteasome (unknown origin)
[4] = target: T1, Ubiquitin-like modifier-activating enzyme 1 (Homo sapiens) (UniProt P22314); test: Inhibition of ubiquitin/ubiquitin-activating enzyme E1 (unknown origin)
T1 sequence (whole entry): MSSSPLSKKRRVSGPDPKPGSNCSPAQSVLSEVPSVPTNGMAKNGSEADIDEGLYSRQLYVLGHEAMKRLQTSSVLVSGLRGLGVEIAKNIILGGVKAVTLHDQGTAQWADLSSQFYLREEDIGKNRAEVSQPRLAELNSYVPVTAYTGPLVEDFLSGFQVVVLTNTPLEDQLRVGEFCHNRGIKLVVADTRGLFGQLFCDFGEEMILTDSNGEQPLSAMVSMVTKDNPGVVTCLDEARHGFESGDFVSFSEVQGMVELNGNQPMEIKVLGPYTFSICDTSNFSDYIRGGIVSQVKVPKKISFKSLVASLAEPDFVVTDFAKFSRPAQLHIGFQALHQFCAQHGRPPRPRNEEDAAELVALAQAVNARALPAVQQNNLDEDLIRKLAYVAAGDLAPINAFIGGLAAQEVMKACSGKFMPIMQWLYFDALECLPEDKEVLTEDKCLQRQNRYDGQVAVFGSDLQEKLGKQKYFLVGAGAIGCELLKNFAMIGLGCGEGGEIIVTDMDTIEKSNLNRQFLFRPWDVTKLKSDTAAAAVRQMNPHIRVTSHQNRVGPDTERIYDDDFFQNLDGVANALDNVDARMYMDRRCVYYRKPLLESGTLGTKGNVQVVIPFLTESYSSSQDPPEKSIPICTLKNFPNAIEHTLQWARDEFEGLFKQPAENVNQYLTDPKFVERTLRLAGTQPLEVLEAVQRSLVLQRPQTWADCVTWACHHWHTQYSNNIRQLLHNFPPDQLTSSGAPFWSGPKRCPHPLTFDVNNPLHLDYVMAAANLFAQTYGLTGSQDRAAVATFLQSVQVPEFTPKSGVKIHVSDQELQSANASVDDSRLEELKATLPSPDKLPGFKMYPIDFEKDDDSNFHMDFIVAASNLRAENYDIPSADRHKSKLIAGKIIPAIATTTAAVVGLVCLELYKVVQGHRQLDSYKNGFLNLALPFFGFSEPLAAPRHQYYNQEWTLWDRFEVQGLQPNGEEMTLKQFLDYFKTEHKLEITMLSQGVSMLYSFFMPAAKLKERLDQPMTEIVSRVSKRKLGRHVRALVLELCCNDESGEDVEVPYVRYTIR

[5] = organism: Homo sapiens; test: Inhibition of ubiquitin/Ubc13/Uev1A (unknown origin)
[6] = target: Tumour suppressor p53/oncoprotein Mdm2 (Homo sapiens) (UniProt P04637+Q00987); test: Inhibition of ubiquitin/p53/Mdm2 (unknown origin); format: protein assay
[7] = target: Ubiquitin carboxyl-terminal hydrolase 7 (Homo sapiens) (UniProt Q93009); test: Inhibition of ubiquitin/USP7 (unknown origin)
Chain of Ubiquitin carboxyl-terminal hydrolase 7 (Homo sapiens) (Q93009 whole entry, looked up): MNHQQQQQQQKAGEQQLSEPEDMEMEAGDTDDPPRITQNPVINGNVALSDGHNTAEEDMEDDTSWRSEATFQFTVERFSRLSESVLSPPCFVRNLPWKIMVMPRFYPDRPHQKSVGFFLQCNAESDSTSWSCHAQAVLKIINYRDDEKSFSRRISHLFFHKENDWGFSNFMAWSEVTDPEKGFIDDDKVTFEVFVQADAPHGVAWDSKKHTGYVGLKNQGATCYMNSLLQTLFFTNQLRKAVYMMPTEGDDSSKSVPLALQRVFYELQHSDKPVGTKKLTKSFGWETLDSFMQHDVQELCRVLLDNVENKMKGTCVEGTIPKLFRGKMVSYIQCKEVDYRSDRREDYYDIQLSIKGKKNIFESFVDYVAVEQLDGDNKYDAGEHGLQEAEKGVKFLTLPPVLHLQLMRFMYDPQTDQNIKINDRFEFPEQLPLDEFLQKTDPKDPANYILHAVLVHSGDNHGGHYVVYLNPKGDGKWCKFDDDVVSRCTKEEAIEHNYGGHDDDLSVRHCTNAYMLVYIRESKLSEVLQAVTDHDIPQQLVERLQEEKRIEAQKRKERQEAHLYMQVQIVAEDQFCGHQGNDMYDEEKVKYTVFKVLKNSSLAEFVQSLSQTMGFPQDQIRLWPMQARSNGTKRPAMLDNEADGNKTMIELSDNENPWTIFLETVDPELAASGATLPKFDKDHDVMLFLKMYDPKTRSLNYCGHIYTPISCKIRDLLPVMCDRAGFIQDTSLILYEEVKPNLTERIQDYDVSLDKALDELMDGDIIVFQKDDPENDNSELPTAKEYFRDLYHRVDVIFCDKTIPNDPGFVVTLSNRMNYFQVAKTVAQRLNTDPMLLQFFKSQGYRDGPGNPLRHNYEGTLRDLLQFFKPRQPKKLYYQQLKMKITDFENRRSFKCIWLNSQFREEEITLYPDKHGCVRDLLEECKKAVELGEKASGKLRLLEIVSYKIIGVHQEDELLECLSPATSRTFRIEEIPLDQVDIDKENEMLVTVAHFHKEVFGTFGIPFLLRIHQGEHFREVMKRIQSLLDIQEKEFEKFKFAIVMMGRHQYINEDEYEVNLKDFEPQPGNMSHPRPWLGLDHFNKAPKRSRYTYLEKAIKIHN

Chain of Tumour suppressor p53/oncoprotein Mdm2 (Homo sapiens) (P04637 whole entry, looked up): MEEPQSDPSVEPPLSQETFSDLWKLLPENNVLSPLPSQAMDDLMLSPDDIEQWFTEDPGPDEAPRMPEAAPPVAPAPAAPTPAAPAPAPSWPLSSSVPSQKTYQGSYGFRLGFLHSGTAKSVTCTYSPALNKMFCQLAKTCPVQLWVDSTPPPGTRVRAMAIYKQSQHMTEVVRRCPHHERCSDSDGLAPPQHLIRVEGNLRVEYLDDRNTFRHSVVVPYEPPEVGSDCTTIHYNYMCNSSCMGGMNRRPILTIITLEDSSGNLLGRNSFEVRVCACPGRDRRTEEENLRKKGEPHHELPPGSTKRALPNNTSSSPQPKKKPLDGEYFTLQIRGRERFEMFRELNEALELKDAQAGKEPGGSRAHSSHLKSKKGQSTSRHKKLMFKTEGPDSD
Chain of Tumour suppressor p53/oncoprotein Mdm2 (Homo sapiens) (Q00987 whole entry, looked up): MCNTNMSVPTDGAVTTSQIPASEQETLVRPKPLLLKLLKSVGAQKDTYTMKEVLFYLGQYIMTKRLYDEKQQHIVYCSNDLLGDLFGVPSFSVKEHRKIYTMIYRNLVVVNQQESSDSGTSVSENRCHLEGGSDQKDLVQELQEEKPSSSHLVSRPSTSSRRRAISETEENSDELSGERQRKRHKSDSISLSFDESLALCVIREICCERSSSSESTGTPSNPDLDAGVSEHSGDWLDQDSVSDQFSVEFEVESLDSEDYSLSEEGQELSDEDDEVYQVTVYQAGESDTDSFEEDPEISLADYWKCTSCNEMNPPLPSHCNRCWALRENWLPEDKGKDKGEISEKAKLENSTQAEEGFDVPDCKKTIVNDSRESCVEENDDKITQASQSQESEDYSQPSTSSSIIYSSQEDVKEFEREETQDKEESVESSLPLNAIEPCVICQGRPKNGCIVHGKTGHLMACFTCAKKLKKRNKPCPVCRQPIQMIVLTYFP

inhibition [3]: inactive | inhibition [4]: inactive | inhibition [5]: inactive | inhibition [6]: inactive | inhibition [7]: inactive
Compound: CC1C2C=CC3(C)C1(C)CCC31C(=O)O[C@H](O)[C@@H]21 (some centres not stated)
inhibition [1]: inactive | inhibition [2]: inactive
